Measured values from patent US20250129070A1, “BIFUNCTIONAL ANDROGEN RECEPTOR COMPOUNDS” (priority 2023, published 2025).

Each compound was assayed on AR / CBP ternary complex (assay: Ternary complex formation assay (sandwich ELISA, AR capture / CBP detection) in VCaP cell lysates). Conditions: 1.5 hours treatment, sandwich ELISA (AR capture, CBP or p300 detection).
Type: cell-based
Protocol: Preparation of Mouse Anti-AR Antibody Coated 96 Well Plates
Black MaxiSorp plates: coat with 50 μL of mouse 1/50 diluted AR antibody (Monoclonal Antibody (AR 441 from Thermo Fisher); diluted in phosphate buffered saline (PBS). Spin the liquid to the bottom of the wells, if necessary. Incubate overnight at 4° C. Next day, wash 3 times with 200 μL of TBST. Block with 200 μL of blocking buffer (5% BSA in TBST) at room temperature for 2 hours (BSA: A4503 or A2153 from Sigma). Wash plates 3 times with TBST. Plates are ready for lysates Preparation of dimerizer treated lysates
Culture cells in 96 wells at 50K VCaP cells/well for at least 3 days. Plate in 5% Omega charcoal stripped FBS in total volume of 200 uL. Treat with bifunctional for 1.5 hours by adding 1 μL of 200× stock in DMSO. Aspirate media/compound. Add and pipet-to-mix 70 μL of 1× AlphaLisa Lysis Buffer to each well (Perkin Elmer, AlphaLISA SureFire Ultra, diluted in water). Pipet up and down when adding lysis buffer to disrupt cells. Let lysis proceed for 30 min at 4° C.
Incubate for 1 hour at room temperature. Flick out the lysates. Wash 3 times with TBST. Add 75 μL of rabbit CBP or p300 antibody to each well (diluted 1:5000 in blocking buffer (5% BSA in TBST). CBP antibody: (D6C5) Rabbit mAb #7389; p300 antibody: (D8Z4E) Rabbit mAb #86377. Incubate overnight at 4° C. Wash 3 times with 300 uL TBST, each time on shaker for 5-10 min. Prepare goat anti-rabbit antibody conjugated to HRP (1/100K dilution in blocking buffer) Invitrogen Catalog number: 32260. Add 75 μL of HRP-conjugated goat anti-rabbit antibody. Incubate at room temperature for 1 hour. Flick out the HRP-antibody mixture. Wash 7-8 times with TBST, each time on shaker for 10 min. Later washes try to overflow the wells so that no residual HRP remains bound to the sides of the well. Prepare and add 75 uL/well of QuantaRed Enhance Chemifluorescent HRP Substrate solution. Immediately read fluorescence on BMG ClarioStar (ex: 570/em 585), and repeat the read in 5 minutes and 15 minutes.

Row | SMILES | EC50 [nM]
1 | CC(=O)N1CCc2c(c(N3CCCc4cc(-c5cn(C)cn5)c(C(F)F)cc43)nn2C2CCN(CC3C(C)CN(c4ncc(C(=O)NC5C(C)(C)C(Oc6ccc(C#N)c(Cl)c6)C5(C)C)cn4)CC3C)CC2)C1 (centres unmarked) [Compound 425, 2-[4-[[4-[5-acetyl-3-[7-(difluoromethyl)-6-(1-methylimidazol-4-yl)-3,4-dihydro-2H-quinolin-1-yl]-6,7-dihydro-4H-pyrazolo[4,3-c]pyridin-1-yl]-1-piperidyl]methyl]-3,5-dimethyl-1-piperidyl]-N-[3-(3-chloro-4-cyano-phenoxy)-2,2,4,4-tetramethyl-cyclobutyl]pyrimidine-5-carboxamide] | < 1
2 | CC(=O)N1CCc2c(c(N3CCCc4cc(-c5cnn(C)c5)c(C(F)F)cc43)nn2C2CN(CCN3CCN(c4ncc(C(=O)NC5C(C)(C)C(Oc6ccc(C#N)c(Cl)c6)C5(C)C)cn4)CC3)C2)C1 (centres unmarked) [Compound 161, 2-[4-[2-[3-[5-acetyl-3-[7-(difluoromethyl)-6-(1-methylpyrazol-4-yl)-3,4-dihydro-2H-quinolin-1-yl]-6,7-dihydro-4H-pyrazolo[4,3-c]pyridin-1-yl]azetidin-1-yl]ethyl]piperazin-1-yl]-N-[3-(3-chloro-4-cyano-phenoxy)-2,2,4,4-tetramethyl-cyclobutyl]pyrimidine-5-carboxamide] | 10 to 100
3 | CC(=O)N1CCc2c(c(N3CCCc4cc(-c5cnn(C)c5)c(C(F)F)cc43)nn2C2CCC(OC3CN(c4ncc(C(=O)NC5C(C)(C)C(Oc6ccc(C#N)c(Cl)c6)C5(C)C)cn4)C3)CC2)C1 (centres unmarked) [Compound 340, 2-[3-[4-[5-acetyl-3-[7-(difluoromethyl)-6-(1-methylpyrazol-4-yl)-3,4-dihydro-2H-quinolin-1-yl]-6,7-dihydro-4H-pyrazolo[4,3-c]pyridin-1-yl]cyclohexoxy]azetidin-1-yl]-N-[3-(3-chloro-4-cyano-phenoxy)-2,2,4,4-tetramethyl-cyclobutyl]pyrimidine-5-carboxamide] | < 1
4 | COc1cc(OC2C(C)(C)C(NC(=N)c3ccc(N4CCC(N(C)C5CCC(n6nc(N7CCCc8cc(-c9cnn(C)c9)c(C(F)F)cc87)c7c6CCN(C(C)=O)C7)CC5)CC4)cc3)C2(C)C)ccc1C#N (centres unmarked) [Compound 278, 4-[4-[[4-[5-acetyl-3-[7-(difluoromethyl)-6-(1-methylpyrazol-4-yl)-3,4-dihydro-2H-quinolin-1-yl]-6,7-dihydro-4H-pyrazolo[4,3-c]pyridin-1-yl]cyclohexyl]-methyl-amino]-1-piperidyl]-N-[3-(4-cyano-3-methoxy-phenoxy)-2,2,4,4-tetramethyl-cyclobutyl]benzamidine] | < 1
5 | CC(=O)N1CCc2c(c(N3CCCc4cc(-c5cnn(C)c5)c(C(F)F)cc43)nn2CCOc2ncc(C(=O)NC3C(C)(C)C(Oc4ccc(C#N)c(Cl)c4)C3(C)C)cn2)C1 (centres unmarked) [Compound 46, 2-[2-[5-acetyl-3-[7-(difluoromethyl)-6-(1-methylpyrazol-4-yl)-3,4-dihydro-2H-quinolin-1-yl]-6,7-dihydro-4H-pyrazolo[4,3-c]pyridin-1-yl]ethoxy]-N-[3-(3-chloro-4-cyano-phenoxy)-2,2,4,4-tetramethyl-cyclobutyl]pyrimidine-5-carboxamide] | < 1
6 | COc1cc(O[C@H]2C(C)(C)[C@H](NC(=O)c3ccc(N4CCN(C5CN(c6ccc(-c7cc8c(cc7C(F)F)N(c7nn(C9CCOCC9)c9c7CN(C(C)=O)CC9)CCC8)cn6)C5)CC4)cc3)C2(C)C)ccc1C#N [Compound 326, 4-(4-(1-(5-(1-(5-acetyl-1-(tetrahydro-2H-pyran-4-yl)-4,5,6,7-tetrahydro-1H-pyrazolo[4,3-c]pyridin-3-yl)-7-(difluoromethyl)-1,2,3,4-tetrahydroquinolin-6-yl)pyridin-2-yl)azetidin-3-yl)piperazin-1-yl)-N-((1r,3r)-3-(4-cyano-3-methoxyphenoxy)-2,2,4,4-tetramethylcyclobutyl)benzamide] | < 1
7 | CC(=O)N1CCc2c(c(-c3cccc4cc(-c5cnn(C)c5)ncc34)nn2C2CCN(CC3C(C)CN(c4ncc(C(=O)NC5C(C)(C)C(Oc6ccc(C#N)c(Cl)c6)C5(C)C)cn4)CC3C)CC2)C1 (centres unmarked) [Compound 440, 2-[4-[[4-[5-acetyl-3-[3-(1-methylpyrazol-4-yl)-8-isoquinolyl]-6,7-dihydro-4H-pyrazolo[4,3-c]pyridin-1-yl]-1-piperidyl]methyl]-3,5-dimethyl-1-piperidyl]-N-[3-(3-chloro-4-cyano-phenoxy)-2,2,4,4-tetramethyl-cyclobutyl]pyrimidine-5-carboxamide] | < 1
8 | CC(=O)N1CCc2c(c(N3CCCc4cc(-c5cnn(C)c5)c(C(F)F)cc43)nn2C2CCN(C(C)C3CCN(c4ncc(C(=O)NC5C(C)(C)C(Oc6ccc(C#N)c(Cl)c6)C5(C)C)cn4)CC3)CC2)C1 (centres unmarked) [Compound 113, 2-[4-[1-[4-[5-acetyl-3-[7-(difluoromethyl)-6-(1-methylpyrazol-4-yl)-3,4-dihydro-2H-quinolin-1-yl]-6,7-dihydro-4H-pyrazolo[4,3-c]pyridin-1-yl]-1-piperidyl]ethyl]-1-piperidyl]-N-[3-(3-chloro-4-cyano-phenoxy)-2,2,4,4-tetramethyl-cyclobutyl]pyrimidine-5-carboxamide] | < 1
9 | CC(=O)N1CCc2c(c(N3CCCc4cc(-c5cnn(C)c5)c(C(F)F)cc43)nn2C2CCN(C3CCC(Oc4ncc(C(=O)NC5C(C)(C)C(Oc6ccc(C#N)c(Cl)c6)C5(C)C)cn4)CC3)CC2)C1 (centres unmarked) [Compound 382, 2-[4-[4-[5-acetyl-3-[7-(difluoromethyl)-6-(1-methylpyrazol-4-yl)-3,4-dihydro-2H-quinolin-1-yl]-6,7-dihydro-4H-pyrazolo[4,3-c]pyridin-1-yl]-1-piperidyl]cyclohexoxy]-N-[3-(3-chloro-4-cyano-phenoxy)-2,2,4,4-tetramethyl-cyclobutyl]pyrimidine-5-carboxamide] | < 1
10 | CC(=O)N1CCc2c(c(-c3cccc4cc(-c5ccc(COCC6CCN(c7ncc(C(=O)NC8C(C)(C)C(Oc9ccc(C#N)c(Cl)c9)C8(C)C)cn7)CC6)nc5)ncc34)nn2C2CCOCC2)C1 (centres unmarked) [Compound 143, 2-[4-[[5-[8-(5-acetyl-1-tetrahydropyran-4-yl-6,7-dihydro-4H-pyrazolo[4,3-c]pyridin-3-yl)-3-isoquinolyl]-2-pyridyl]methoxymethyl]-1-piperidyl]-N-[3-(3-chloro-4-cyano-phenoxy)-2,2,4,4-tetramethyl-cyclobutyl]pyrimidine-5-carboxamide] | < 1
11 | COc1cc(OC2C(C)(C)C(NC(=O)c3ccc(N4CC(C)C(CN5CCC(n6nc(N7CCCc8cc(C#N)c(C)cc87)c7c6CCN(C(C)=O)C7)CC5)C(C)C4)cc3)C2(C)C)ccc1C#N (centres unmarked) [Compound 457, 4-[4-[[4-[5-acetyl-3-(6-cyano-7-methyl-3,4-dihydro-2H-quinolin-1-yl)-6,7-dihydro-4H-pyrazolo[4,3-c]pyridin-1-yl]-1-piperidyl]methyl]-3,5-dimethyl-1-piperidyl]-N-[3-(4-cyano-3-methoxy-phenoxy)-2,2,4,4-tetramethyl-cyclobutyl]benzamide] | < 1
12 | CC(=O)N1CCc2c(c(N3CCCc4cc(-c5cnn(C)c5)c(C(F)F)cc43)nn2C2CCN(C(=O)C3CCN(c4ccc(C(=O)NC5C(C)(C)C(Oc6ccc(C#N)c(Cl)c6)C5(C)C)cc4)CC3)CC2)C1 (centres unmarked) [Compound 116, 4-[4-[4-[5-acetyl-3-[7-(difluoromethyl)-6-(1-methylpyrazol-4-yl)-3,4-dihydro-2H-quinolin-1-yl]-6,7-dihydro-4H-pyrazolo[4,3-c]pyridin-1-yl]piperidine-1-carbonyl]-1-piperidyl]-N-[3-(3-chloro-4-cyano-phenoxy)-2,2,4,4-tetramethyl-cyclobutyl]benzamide] | > 100
13 | COc1cc(OC2C(C)(C)C(NC(=O)c3ccc(N4CCC5(CC4)CC(Oc4ccc(-c6cc7c(cc6C(F)F)N(c6nn(C8CCOCC8)c8c6CN(C(C)=O)CC8)CCC7)cc4)C5)cc3)C2(C)C)ccc1C#N (centres unmarked) [Compound 307, 4-[2-[4-[1-(5-acetyl-1-tetrahydropyran-4-yl-6,7-dihydro-4H-pyrazolo[4,3-c]pyridin-3-yl)-7-(difluoromethyl)-3,4-dihydro-2H-quinolin-6-yl]phenoxy]-7-azaspiro[3.5]nonan-7-yl]-N-[3-(4-cyano-3-methoxy-phenoxy)-2,2,4,4-tetramethyl-cyclobutyl]benzamide] | 1 to 10
14 | COc1cc(OC2C(C)(C)C(NC(=O)c3ccc(N4CC(N5CCCC6(CCC(n7nc(N8CCCc9cc(-c%10cnn(C)c%10)c(C(F)F)cc98)c8c7CCN(C(C)=O)C8)CC6)C5)C4)cc3)C2(C)C)ccc1C#N (centres unmarked) [Compound 416, 4-[3-[9-[5-acetyl-3-[7-(difluoromethyl)-6-(1-methylpyrazol-4-yl)-3,4-dihydro-2H-quinolin-1-yl]-6,7-dihydro-4Hpyrazolo[4,3-c]pyridin-1-yl]-2-azaspiro[5.5]undecan-2-yl]azetidin-1-yl]-N-[3-(4-cyano-3-methoxy-phenoxy)-2,2,4,4-tetramethyl-cyclobutyl]benzamide] | 1 to 10
